Measurements reported in ChEMBL document CHEMBL4371033, “Highly Potent and Selective Plasmin Inhibitors Based on the Sunflower Trypsin Inhibitor-1 Scaffold Attenuate Fibrinolysis in Plasma” (J Med Chem, 2019).
Residues, ends and D or L forms follow the SMILES beside them.

Tests used:
Serine protease 1 = biological target: T1, Serine protease 1 (Bos taurus, UniProt P00760); assay: Inhibition of bovine cationic trypsin using Bz-FVR-pNA as substrate after 30 mins
T1 sequence (P00760 whole entry): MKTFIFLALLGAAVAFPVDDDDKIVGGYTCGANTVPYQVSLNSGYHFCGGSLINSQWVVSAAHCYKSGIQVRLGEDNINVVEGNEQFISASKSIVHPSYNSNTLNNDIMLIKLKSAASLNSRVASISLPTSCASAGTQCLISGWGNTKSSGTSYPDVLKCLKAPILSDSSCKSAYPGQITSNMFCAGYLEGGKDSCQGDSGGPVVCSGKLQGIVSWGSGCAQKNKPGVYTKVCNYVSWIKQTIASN

Plasminogen = Plasminogen (Homo sapiens, UniProt P00747); assay: Inhibition of human plasmin using Ac-RM(O2)YR-pNA as substrate after 30 mins
Cathepsin G = biological target: T2, Cathepsin G (Homo sapiens, UniProt P08311); assay: Inhibition of human cathepsin G using Suc-AAPF-MCA as substrate after 30 mins
T2 sequence (P08311 whole entry): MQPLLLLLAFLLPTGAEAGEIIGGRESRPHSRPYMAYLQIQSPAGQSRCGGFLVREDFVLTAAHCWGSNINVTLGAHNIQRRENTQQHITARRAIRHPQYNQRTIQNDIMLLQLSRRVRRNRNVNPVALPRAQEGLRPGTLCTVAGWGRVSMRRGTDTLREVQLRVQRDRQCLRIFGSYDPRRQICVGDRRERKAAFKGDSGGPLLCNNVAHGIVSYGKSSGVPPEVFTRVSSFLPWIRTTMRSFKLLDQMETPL

Coagulation factor XI [1] = biological target: T3, Coagulation factor XI (Homo sapiens, UniProt P03951); assay: Inhibition of activated beta-factor 11 (unknown origin) using Bz-FVRpNA as substrate after 30 mins
Plasma kallikrein [2] = biological target: T4, Plasma kallikrein (Homo sapiens, UniProt P03952); assay: Inhibition of plasma KLK (unknown origin) using Ac-NLTR-pNA as substrate after 30 mins
Prothrombin [3] = biological target: T5, Prothrombin (Homo sapiens, UniProt P00734); assay: Inhibition of human thrombin using Ac-ATPR-pNA as substrate after 30 mins
[4] = biological target: T6, Suppressor of tumorigenicity 14 protein (Homo sapiens, UniProt Q9Y5Y6); assay: Inhibition of matriptase (unknown origin) using Boc-QAR-MCA as substrate after 30 mins
T6 sequence (Q9Y5Y6 whole entry): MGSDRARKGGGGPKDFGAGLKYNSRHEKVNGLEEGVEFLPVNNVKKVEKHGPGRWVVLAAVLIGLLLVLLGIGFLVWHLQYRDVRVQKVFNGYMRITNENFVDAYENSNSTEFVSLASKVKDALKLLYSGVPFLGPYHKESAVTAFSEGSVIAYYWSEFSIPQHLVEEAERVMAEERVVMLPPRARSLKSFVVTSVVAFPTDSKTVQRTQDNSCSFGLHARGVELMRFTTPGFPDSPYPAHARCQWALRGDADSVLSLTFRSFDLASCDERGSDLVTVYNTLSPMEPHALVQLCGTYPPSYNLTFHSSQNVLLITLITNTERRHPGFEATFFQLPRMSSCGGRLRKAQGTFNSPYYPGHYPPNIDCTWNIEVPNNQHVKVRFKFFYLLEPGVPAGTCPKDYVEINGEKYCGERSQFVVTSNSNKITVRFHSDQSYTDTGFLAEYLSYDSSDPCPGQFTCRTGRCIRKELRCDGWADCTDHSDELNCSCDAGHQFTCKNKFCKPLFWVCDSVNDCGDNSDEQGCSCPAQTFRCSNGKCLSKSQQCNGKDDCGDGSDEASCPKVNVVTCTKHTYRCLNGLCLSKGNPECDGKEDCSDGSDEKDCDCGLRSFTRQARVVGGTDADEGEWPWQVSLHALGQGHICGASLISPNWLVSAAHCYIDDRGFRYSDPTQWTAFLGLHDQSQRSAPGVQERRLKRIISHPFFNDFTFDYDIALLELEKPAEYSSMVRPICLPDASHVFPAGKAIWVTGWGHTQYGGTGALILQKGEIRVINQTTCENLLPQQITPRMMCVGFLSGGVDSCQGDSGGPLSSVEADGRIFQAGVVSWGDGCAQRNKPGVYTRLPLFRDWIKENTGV

Coagulation factor IX = Coagulation factor IX (Homo sapiens, UniProt P00740); assay: Inhibition of activated beta-factor 9 (unknown origin) using Boc-QGR-MCA as substrate after 30 mins relative to untreated control
Coagulation factor X = Coagulation factor X (Homo sapiens, UniProt P00742); assay: Inhibition of activated factor 10 (unknown origin) using Ac-QRSR-pNA as substrate after 30 mins relative to untreated control
Coagulation factor XII [5] = biological target: T7, Coagulation factor XII (Homo sapiens, UniProt P00748); assay: Inhibition of activated beta-factor 12 (unknown origin) using Ac-QRFR-pNA as substrate after 30 mins relative to untreated control
T7 sequence (P00748 whole entry): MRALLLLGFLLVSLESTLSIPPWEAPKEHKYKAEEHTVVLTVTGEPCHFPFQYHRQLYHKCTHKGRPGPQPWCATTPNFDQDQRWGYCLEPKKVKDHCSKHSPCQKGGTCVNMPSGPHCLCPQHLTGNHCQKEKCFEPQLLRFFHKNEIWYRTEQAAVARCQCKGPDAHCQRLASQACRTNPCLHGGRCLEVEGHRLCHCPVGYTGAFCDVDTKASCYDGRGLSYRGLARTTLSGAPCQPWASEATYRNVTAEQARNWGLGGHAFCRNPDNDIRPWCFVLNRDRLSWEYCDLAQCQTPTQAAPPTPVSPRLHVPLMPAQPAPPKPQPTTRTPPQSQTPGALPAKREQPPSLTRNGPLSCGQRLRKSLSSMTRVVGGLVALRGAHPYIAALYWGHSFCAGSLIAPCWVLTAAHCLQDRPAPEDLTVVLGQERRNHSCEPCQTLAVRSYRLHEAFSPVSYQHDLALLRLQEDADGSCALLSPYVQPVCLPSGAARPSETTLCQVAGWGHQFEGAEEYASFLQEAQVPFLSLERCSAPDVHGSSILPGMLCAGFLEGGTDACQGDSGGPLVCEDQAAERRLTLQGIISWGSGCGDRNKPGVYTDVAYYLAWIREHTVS

Prothrombin [6] = biological target: T5, Prothrombin; assay: Inhibition of human thrombin using Ac-ATPR-pNA as substrate after 30 mins relative to untreated control
[7] = biological target: Tissue-type plasminogen activator (Homo sapiens, UniProt P00750); assay: Inhibition of tPA (unknown origin) using Z-Pyr-Gly-Arg-MCA as substrate after 30 mins relative to untreated control
[8] = biological target: Urokinase-type plasminogen activator (Homo sapiens, UniProt P00749); assay: Inhibition of uPA (unknown origin) using Z-Pyr-Gly-Arg-MCA as substrate after 30 mins relative to untreated control
Coagulation factor XII [9] = biological target: T7, Coagulation factor XII; assay: Inhibition of human beta-factor 12a using Ac-QRFR-pNA as substrate after 30 mins
Trypsin (Sus scrofa) [10] = biological target: Trypsin (Sus scrofa) (UniProt P00761); assay: Inhibition of porcine trypsin assessed as dissociation rate constant using peptide-pNA as substrate
Trypsin (Sus scrofa) [11] = biological target: Trypsin (Sus scrofa) (UniProt P00761); assay: Inhibition of porcine trypsin assessed as association rate constant using peptide-pNA as substrate
[12] = Inhibition of bovine trypsin pre-incubated for 60 mins before tos-GPR-AMC substrate addition; set-up: species or system Bos taurus
[13] = biological target: T6, Suppressor of tumorigenicity 14 protein; assay: Inhibition of recombinant human matriptase catalytic domain pre-incubated for 60 mins before Boc QAR-AMC substrate addition
Coagulation factor XI [14] = biological target: T3, Coagulation factor XI; assay: Inhibition of activated beta-factor 11 (unknown origin) using Bz-FVRpNA as substrate after 30 mins relative to untreated control
Plasma kallikrein [15] = biological target: T4, Plasma kallikrein; assay: Inhibition of plasma KLK (unknown origin) using Ac-NLTR-pNA as substrate after 30 mins relative to untreated control
[16] = biological target: T6, Suppressor of tumorigenicity 14 protein; assay: Inhibition of matriptase (unknown origin) using Boc-QAR-MCA as substrate after 30 mins relative to untreated control

T3 sequence (P03951 19-387 limits assumed): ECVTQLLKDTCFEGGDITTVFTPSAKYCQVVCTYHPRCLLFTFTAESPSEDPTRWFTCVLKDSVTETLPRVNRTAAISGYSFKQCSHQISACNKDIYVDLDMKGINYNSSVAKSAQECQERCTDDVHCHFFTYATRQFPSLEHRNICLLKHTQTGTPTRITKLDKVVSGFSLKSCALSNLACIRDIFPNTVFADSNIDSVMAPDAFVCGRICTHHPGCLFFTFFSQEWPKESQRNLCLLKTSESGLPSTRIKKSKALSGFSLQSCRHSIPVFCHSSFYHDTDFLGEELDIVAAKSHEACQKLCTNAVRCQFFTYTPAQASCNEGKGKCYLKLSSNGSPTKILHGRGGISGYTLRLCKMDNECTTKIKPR
T3 sequence (P03951 388-625 limits assumed): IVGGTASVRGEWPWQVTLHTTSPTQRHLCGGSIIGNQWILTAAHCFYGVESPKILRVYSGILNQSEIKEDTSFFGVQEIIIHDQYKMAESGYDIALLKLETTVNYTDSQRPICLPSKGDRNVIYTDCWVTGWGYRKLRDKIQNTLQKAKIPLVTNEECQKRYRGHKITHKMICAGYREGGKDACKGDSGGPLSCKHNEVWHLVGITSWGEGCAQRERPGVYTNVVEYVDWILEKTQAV
Sequence of Trypsin (Sus scrofa) (P00761 whole entry): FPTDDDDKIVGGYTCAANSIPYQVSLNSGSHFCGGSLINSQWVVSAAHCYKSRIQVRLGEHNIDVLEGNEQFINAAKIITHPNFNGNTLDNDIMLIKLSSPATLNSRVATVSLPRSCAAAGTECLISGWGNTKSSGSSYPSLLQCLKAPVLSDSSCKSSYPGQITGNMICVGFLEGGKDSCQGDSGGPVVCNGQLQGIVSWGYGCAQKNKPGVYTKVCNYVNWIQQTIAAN
Sequence of Tissue-type plasminogen activator (P00750 whole entry): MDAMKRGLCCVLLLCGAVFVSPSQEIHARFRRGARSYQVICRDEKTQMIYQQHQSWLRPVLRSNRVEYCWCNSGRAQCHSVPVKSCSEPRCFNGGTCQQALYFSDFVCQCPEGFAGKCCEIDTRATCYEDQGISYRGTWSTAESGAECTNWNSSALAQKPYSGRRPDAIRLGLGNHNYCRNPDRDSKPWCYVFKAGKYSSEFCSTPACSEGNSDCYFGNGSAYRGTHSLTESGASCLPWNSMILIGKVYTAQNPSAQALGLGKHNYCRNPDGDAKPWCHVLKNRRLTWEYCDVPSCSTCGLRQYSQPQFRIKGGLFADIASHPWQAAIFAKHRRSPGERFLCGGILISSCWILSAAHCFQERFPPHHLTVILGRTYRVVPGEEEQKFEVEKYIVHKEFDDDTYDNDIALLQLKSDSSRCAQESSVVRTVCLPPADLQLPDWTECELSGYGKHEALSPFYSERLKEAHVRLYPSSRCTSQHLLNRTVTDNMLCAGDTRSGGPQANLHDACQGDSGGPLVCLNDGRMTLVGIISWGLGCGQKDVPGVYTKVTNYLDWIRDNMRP
Sequence of Coagulation factor IX (P00740 47-191 limits assumed): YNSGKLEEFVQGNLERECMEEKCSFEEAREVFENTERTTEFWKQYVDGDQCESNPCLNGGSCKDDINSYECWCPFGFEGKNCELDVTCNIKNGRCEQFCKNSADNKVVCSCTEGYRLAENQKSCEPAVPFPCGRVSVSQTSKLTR
Sequence of Coagulation factor IX (P00740 227-461 limits assumed): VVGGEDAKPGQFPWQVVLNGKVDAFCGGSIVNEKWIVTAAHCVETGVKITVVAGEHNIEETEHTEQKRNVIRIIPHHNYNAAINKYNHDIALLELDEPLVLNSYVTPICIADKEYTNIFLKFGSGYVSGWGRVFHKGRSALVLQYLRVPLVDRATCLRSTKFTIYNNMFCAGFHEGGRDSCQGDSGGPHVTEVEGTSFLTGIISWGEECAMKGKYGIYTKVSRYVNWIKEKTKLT
T4 sequence (P03952 20-390 limits assumed): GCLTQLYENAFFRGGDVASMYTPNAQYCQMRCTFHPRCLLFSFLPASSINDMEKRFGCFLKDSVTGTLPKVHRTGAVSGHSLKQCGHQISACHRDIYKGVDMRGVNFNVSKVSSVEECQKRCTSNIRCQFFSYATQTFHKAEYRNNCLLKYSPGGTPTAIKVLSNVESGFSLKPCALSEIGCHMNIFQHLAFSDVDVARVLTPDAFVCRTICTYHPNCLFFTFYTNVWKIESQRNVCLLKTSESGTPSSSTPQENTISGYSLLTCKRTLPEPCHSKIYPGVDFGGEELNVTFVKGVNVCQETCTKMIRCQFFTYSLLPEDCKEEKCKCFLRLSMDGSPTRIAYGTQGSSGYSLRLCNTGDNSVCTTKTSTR
T4 sequence (P03952 391-638 limits assumed): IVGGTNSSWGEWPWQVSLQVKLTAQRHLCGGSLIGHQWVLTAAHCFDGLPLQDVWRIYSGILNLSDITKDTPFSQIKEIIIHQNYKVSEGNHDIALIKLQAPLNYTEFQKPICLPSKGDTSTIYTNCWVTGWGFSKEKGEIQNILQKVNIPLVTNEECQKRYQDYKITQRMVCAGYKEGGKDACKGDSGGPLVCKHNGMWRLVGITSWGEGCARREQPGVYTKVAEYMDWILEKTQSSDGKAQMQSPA
Sequence of Plasminogen (P00747 97-580 limits assumed): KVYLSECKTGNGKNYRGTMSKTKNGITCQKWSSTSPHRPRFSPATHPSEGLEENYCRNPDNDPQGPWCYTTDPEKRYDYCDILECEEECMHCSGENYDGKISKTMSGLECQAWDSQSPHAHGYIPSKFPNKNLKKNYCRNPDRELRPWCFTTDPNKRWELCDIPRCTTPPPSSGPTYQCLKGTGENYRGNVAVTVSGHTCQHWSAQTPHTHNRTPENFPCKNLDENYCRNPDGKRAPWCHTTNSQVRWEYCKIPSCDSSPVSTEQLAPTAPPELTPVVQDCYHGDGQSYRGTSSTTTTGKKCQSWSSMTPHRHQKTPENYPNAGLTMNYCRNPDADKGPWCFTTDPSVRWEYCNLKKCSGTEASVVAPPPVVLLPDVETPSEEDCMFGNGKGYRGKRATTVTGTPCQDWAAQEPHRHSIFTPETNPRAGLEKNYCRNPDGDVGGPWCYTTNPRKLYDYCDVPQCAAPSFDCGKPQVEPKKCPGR
Sequence of Plasminogen (P00747 581-810 limits assumed): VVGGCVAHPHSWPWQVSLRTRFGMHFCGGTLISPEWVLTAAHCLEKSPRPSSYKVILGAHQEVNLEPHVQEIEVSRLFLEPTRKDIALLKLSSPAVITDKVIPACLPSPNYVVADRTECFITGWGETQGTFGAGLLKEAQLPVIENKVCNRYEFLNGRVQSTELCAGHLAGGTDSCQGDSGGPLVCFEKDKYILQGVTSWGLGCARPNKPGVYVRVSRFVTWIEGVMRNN
Sequence of Coagulation factor X (P00742 41-179 limits assumed): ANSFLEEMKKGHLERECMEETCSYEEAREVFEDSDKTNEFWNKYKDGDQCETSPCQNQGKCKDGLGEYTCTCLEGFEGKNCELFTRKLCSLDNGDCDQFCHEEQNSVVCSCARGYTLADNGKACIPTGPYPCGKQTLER
Sequence of Coagulation factor X (P00742 235-488 limits assumed): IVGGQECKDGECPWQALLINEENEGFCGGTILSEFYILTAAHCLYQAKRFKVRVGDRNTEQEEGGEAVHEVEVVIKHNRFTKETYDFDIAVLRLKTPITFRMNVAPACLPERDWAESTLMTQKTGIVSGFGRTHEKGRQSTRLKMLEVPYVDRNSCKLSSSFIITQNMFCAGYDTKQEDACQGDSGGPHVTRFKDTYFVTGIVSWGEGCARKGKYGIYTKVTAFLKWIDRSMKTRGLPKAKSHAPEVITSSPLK

Q: With `CC[C@H](C)[C@@H]1NC(=O)[C@@H]2CCCN2C(=O)[C@@H]2CCCN2C(=O)[C@H]([C@@H](C)CC)NC(=O)[C@H](CO)NC(=O)[C@H](CCCCN)NC(=O)[C@H](Cc2ccc(O)cc2)NC(=O)[C@@H]2CSSC[C@H](NC1=O)C(=O)N[C@@H](Cc1ccccc1)C(=O)N1CCC[C@H]1C(=O)N[C@@H](CC(=O)O)C(=O)NCC(=O)N[C@@H](CCCNC(=N)N)C(=O)N2` (HELM PEPTIDE1{C.F.P.D.G.R.C.Y.K.S.I.P.P.I}$PEPTIDE1,PEPTIDE1,1:R3-7:R3|PEPTIDE1,PEPTIDE1,1:R1-14:R2$$$V2.0) as the molecule, how does the Ki (Serine protease 1) read?
A: The Ki was 0.011 µM.

Q: And the Ki (Plasminogen)?
A: The Ki was 0.14 nM.

Q: And the Ki (Cathepsin G)?
A: Its Ki is 7.8 µM.

Q: What about the Ki (Coagulation factor XI [1]) of the same molecule?
A: Its Ki is 13 µM.

Q: And the Ki (Plasma kallikrein [2])?
A: The Ki was 32 µM.

Q: What about the Ki (Prothrombin [3]) of the same molecule?
A: Its Ki is 250 µM.

Q: And the Ki [4]?
A: The Ki was 480 µM.

Q: And the Ki (Coagulation factor IX)?
A: Its Ki is over 50 µM.

Q: And the Ki (Coagulation factor X)?
A: The Ki was over 50 µM.

Q: And the Ki (Coagulation factor XII [5])?
A: The Ki was over 50 µM.

Q: What about the Ki (Prothrombin [6]) of the same molecule?
A: Its Ki is 250 µM.

Q: What about the Ki [7] of the same molecule?
A: Its Ki is over 50 µM.

Q: And the Ki [8]?
A: The Ki was over 50 µM.

Q: For `CC[C@H](C)[C@@H]1NC(=O)[C@@H]2CCCN2C(=O)[C@@H]2CCCN2C(=O)[C@H]([C@@H](C)CC)NC(=O)[C@H](CO)NC(=O)[C@H](CCCCN)NC(=O)[C@H]([C@@H](C)O)NC(=O)[C@@H]2CSSC[C@H](NC1=O)C(=O)N[C@@H](Cc1ccccc1)C(=O)N1CCC[C@H]1C(=O)N[C@@H](CC(=O)O)C(=O)NCC(=O)N[C@@H](CCCNC(=N)N)C(=O)N2`, which Ki (Coagulation factor XII [9]) is on record?
A: The Ki was 130 µM.

Q: And the K (Trypsin (Sus scrofa) [10])?
A: The K was 0.5 ×10⁻⁴ /s.

Q: And the K (Trypsin (Sus scrofa) [11])?
A: Its K is 0.2 ×10⁷ /M/s.

Q: What about the Ki [12] of the same molecule?
A: The Ki was 0.017 nM.

Q: What about the Ki [13] of the same molecule?
A: Its Ki is 0.2 µM.

Q: What does the source list for `CC[C@H](C)[C@@H]1NC(=O)[C@@H]2CCCN2C(=O)[C@@H]2CCCN2C(=O)[C@H](CCCNC(=N)N)NC(=O)[C@H](CO)NC(=O)[C@H](CCCCN)NC(=O)[C@H](Cc2ccc(O)cc2)NC(=O)[C@@H]2CSSC[C@H](NC1=O)C(=O)N[C@@H](Cc1ccccc1)C(=O)N1CCC[C@H]1C(=O)N[C@@H](CC(=O)O)C(=O)NCC(=O)N[C@@H](CCCNC(=N)N)C(=O)N2` (HELM PEPTIDE1{C.F.P.D.G.R.C.Y.K.S.R.P.P.I}$PEPTIDE1,PEPTIDE1,1:R3-7:R3|PEPTIDE1,PEPTIDE1,1:R1-14:R2$$$V2.0)?
A: Ki (Serine protease 1): 0.028 µM; Ki (Plasminogen): 0.041 nM; Ki (Cathepsin G): 13 µM; Ki (Coagulation factor IX): > 50 µM; Ki (Coagulation factor X): > 50 µM; Ki (Coagulation factor XII [5]): > 50 µM; Ki (Prothrombin [6]): > 50 µM; Ki [7]: > 50 µM; Ki [8]: > 50 µM; Ki (Coagulation factor XI [14]): > 50 µM; Ki (Plasma kallikrein [15]): > 50 µM; Ki [16]: > 50 µM
